Measured values reported in US20030224978A1, “Compounds and methods for modulating apoptosis” (McGill University, priority 1996, published 2003).
Entries after “also recorded” stand apart in the source; their conditions may differ. Positions of bridges follow the written chain, without caps; N, C: chain ends. Residues, ends and D or L forms follow the SMILES beside them.

Assays:
[1] = target: T1, chick N-cadherin (Gallus gallus, UniProt P10288); experiment: N-cadherin dependent neurite outgrowth of rat cerebellar neurons on N-cadherin expressing 3T3 cells (Example 14); assay type: cell-based; details: for inhibitory activity on N-cadherin dependent neurite outgrowth, in words: Tables 8 and 9, 250 or 125 μg/mL
T1 construct: expressed in transfected cells; host or cells: 3T3 fibroblasts
T1 sequence (P10288 165-912): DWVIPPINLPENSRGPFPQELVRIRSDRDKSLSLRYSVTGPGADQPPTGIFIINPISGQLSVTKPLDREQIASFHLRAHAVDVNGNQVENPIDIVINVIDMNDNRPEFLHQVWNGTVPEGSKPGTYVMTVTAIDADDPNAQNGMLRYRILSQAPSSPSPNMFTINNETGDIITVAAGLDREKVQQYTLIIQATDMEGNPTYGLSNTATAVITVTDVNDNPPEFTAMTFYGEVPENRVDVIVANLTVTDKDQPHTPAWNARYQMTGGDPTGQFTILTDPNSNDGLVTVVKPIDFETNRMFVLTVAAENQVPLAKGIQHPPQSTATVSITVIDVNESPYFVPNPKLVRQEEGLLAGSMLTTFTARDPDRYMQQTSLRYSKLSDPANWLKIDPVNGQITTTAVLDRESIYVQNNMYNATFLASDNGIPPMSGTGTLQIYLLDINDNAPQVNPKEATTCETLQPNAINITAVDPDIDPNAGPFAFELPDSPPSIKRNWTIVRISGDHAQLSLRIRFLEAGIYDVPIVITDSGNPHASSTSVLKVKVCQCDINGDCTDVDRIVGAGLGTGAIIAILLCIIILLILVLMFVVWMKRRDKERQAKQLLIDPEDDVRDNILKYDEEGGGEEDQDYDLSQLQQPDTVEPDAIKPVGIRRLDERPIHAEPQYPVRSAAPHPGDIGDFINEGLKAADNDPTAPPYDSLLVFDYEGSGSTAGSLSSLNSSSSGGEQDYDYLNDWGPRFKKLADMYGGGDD

[2] = in vitro; assay type: cell-based; details: human
Method in brief: (§1)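 Cytotoxicity assessed by MTT assay and proliferation by ³H-thymidine incorporation, with peptides tested at concentrations up to 100 μM.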

[3] = test system: angiogenesis in chick embryonic chorioallantoic membranes; experiment: Chick chorioallantoic membrane angiogenesis assay; assay type: in vivo; details: for percent inhibition of angiogenesis: 24 hours; for inhibition of angiogenesis, in words: 3, 17, and 33 μg/mesh
Protocol: The chick chorioallantoic membrane assay was used to assess the effects of cyclic peptides on angiogenesis (Iruela-Arispe et al., Molecular Biology of the Cell 6:327-343, 1995). Cyclic peptides were embedded in a mesh composed of vitrogen at concentrations of 3, 17, and 33 μg/mesh. The meshes were then applied to 12-day-old chick embryonic chorioallantoic membranes. After 24 hours, the effects of the peptides on angiogenesis were assessed by computer assisted morphometric analysis.
For each concentration of cyclic peptide, the percent inhibition of angiogenesis (relative to the level of angiogenesis in the absence of cyclic peptide) is provided. Assays were performed in the presence (+) or absence (−) of […] VEGF. For example, the cyclic peptide N-Ac-CHAVC-NH2 (SEQ ID NO:10) inhibited angiogenesis by 46%, 51%, and 51% at concentrations of 3, 17, and 33 μg/mesh, respectively.

[4] = in vitro; assay type: cell-based; details: human; remark: listed apart in the source
Method in brief: as §1

| Compound | inhibition at 250 µg/mL ([1]; NIH3T3, 250 μg/mL, 16-18 hours) [%] | IC50 [2] [µM] | IC50 [4] [µM] | inhibition of angiogenesis, in words [3] | inhibitory activity on N-cadherin dependent neurite outgrowth, in words [1] | further results |
| --- | --- | --- | --- | --- | --- | --- |
| CC(=O)N[C@H]1CSSC[C@@H](C(N)=O)NC(=O)[C@H](CC(=O)O)NC(=O)[C@H](C(C)C)NC(=O)[C@H](C)NC(=O)[C@H](Cc2c[nH]cn2)NC(=O)[C@H](C)NC1=O [N-Ac-CAHAVDC-NH2, N-Ac-Cys-Ala-His-Ala-Val-Asp-Cys-NH2] (Ac-CAHAVDC-NH2; disulfide 1-7) | 13.3 ± 8.3 | > 100 | > 100 | inhibited angiogenesis significantly | completely eliminated inhibitory activity | – |
| CC(=O)N[C@H]1CSSC[C@@H](C(N)=O)NC(=O)[C@H](C(C)C)NC(=O)CNC(=O)[C@H](Cc2c[nH]cn2)NC1=O [N-Ac-CHGVC-NH2, reference compound] | 4.8 ± 5.3 | – | – | – | – | – |
| CC[C@H](C)[C@@H]1NC(=O)[C@H](CC(=O)O)NC(=O)[C@H](C(C)C)NC(=O)[C@H](C)NC(=O)[C@H](Cc2c[nH]cn2)NC(=O)[C@H](C)NC(=O)[C@@H](NC(C)=O)CSSC[C@@H](C(N)=O)NC1=O (Ac-CAHAVDIC-NH2; disulfide 1-8) | 89.4 | > 100 | > 100 | inhibited angiogenesis significantly | reduced, but did not eliminate, the activity; also recorded: potent inhibitors of neurite outgrowth | activity on N-cadherin dependent neurite outgrowth at lower concentration, in words ([1]; concentrations of 125 µg/mL or below): lost activity |

More lines, main results first:

| inhibition at 250 µg/mL ([1]; NIH3T3, 250 μg/mL, 16-18 hours) [%] | IC50 [2] [µM] | IC50 [4] [µM] | Compound | inhibition of angiogenesis, in words [3] | inhibitory activity on N-cadherin dependent neurite outgrowth, in words [1] | further results |
| --- | --- | --- | --- | --- | --- | --- |
| 68.2 | – | – | CC(=O)N[C@H]1CSSC[C@@H](C(N)=O)NC(=O)[C@H](C(C)C)NC(=O)[C@H](C)NC(=O)[C@H](Cc2c[nH]cn2)NC1=O [N-Ac-CHAVC-NH2, N-Ac-Cys-His-Ala-Val-Cys-NH2] | – | – | % Inhibition of N-cadherin dependent neurite outgrowth ([1]; 250 μg/mL, 16-18 hours): 68.2 ± 5.1 (4) %; inhibition at 125 µg/mL ([1]; NIH3T3, 125 μg/mL, 16-18 hours): 33.2%; effect on the N-cadherin response, in words ([1]; concentrations up to 62 μg/ml): no significant effect on the N-cadherin response; EC50 ([1]; from dose-response curve): 220 µM |
| -2.5 ± 7.4 | > 100 | > 100 | CC(=O)N[C@H]1CSSC[C@@H](C(N)=O)NC(=O)[C@H](CO)NC(=O)[C@H](C(C)C)NC(=O)[C@H](C)NC(=O)[C@H](Cc2c[nH]cn2)NC1=O [N-Ac-CHAVSC-NH2, N-Ac-Cys-His-Ala-Val-Ser-Cys-NH2] (Ac-CHAVSC-NH2; disulfide 1-6) | relatively inactive | – | reduction in inhibitory activity on flanking HAV with E-cadherin amino acids ([1]; Table 8, 250 μg/mL): complete; percent inhibition of angiogenesis ([3]; 3 μg/mesh, absence (−) of 0.01 mM VEGF): 11%; percent inhibition of angiogenesis ([3]; 3 μg/mesh, presence (+) of 0.01 mM VEGF): 17%; percent inhibition of angiogenesis ([3]; 17 μg/mesh, absence (−) of 0.01 mM VEGF): 12%; percent inhibition of angiogenesis ([3]; 17 μg/mesh, presence (+) of 0.01 mM VEGF): 16%; percent inhibition of angiogenesis ([3]; 33 μg/mesh, absence (−) of 0.01 mM VEGF): 17%; percent inhibition of angiogenesis ([3]; 33 μg/mesh, presence (+) of 0.01 mM VEGF): 19% |
